Key:
actions of metenkephalin = assay: Naloxone challenge in reserpine-treated rat model of pre-symptomatic subjects; assay type: in vivo, rats
Experimental: (§1) Reserpine (3 mg/kg, s.c, in 3% glacial acetic acid) was administered to rats to deplete dopamine levels.
(§2) In this situation the animals represent a model of pre-symptomatic subjects, i.e. they have a dopamine depletion but no symptoms.
The parkinsonan symptoms were reversible and were not observed one hour after the naloxone injection where the animals returned to the presymptomatic state.

opioid receptor = assay: Naltrexone challenge in reserpine-treated rats, locomotor activity (Benwick monitors); assay type: in vivo, Sprague-Dawley rats
Experimental: Reserpine was administered to rats to deplete dopamine levels. […] In this situation the animals represent a model of pre-symptomatic patients, i.e. they have a dopamine depletion but no overt symptoms.
Male Sprague-Dawley rats were split into two groups A and B. Rats in both groups received a subcutaneous administration of reserpine (3 mg/kg). The rats were allowed to recover for 48 hours post reserpine treatment at which point they are considered to represent a model of pre-symptomatic Parkinson's disease.
After the 48 hours Group A were treated with vehicle (water) and group B were treated with naltrexone (10 mg/kg) and placed in locomotor monitoring apparatus (see below).
The locomotion of the rats in Groups A and B following either vehicle or naltrexone treatment was measured over the 5 minute period immediately after drug administration using Benwick locomotor monitors. These locomotion monitors consist of a visually-shielded open-field arena, the perimeter of which is surrounded by a series of infra-red beams arranged at 5 cm intervals. PC-based software (Amlogger) assesses the number of beams broken. The number of beams broken as part of a locomotor movement (activity counts) was measured.

cynomolgus monkeys [1] = assay: Parkinsonian monkey rating scale after chronic MPTP administration; assay type: in vivo, Macaca fascicularis; conditions: scale 0-25
Experimental: (§3) Experiments were conducted on twenty five female cynomolgus monkeys (Macaca fascicularis, Shared Animal Health, Beijing, PR of China; mean age=3.1. ±0.3 years; mean weight=2.8 ±0.2 kg). Animals were housed in individual primate cages under controlled conditions of humidity (50±5%0, temperature (24 ±1° C.), and light (12 h light/dark cycles), food and water were available ad libitum and their care supervised by veterinarians skilled in the healthcare and maintenance of nonhuman primates. Experiments were carried out in accordance with European Economic Community (86/6091/EEC) guidelines for care of laboratory animals. The effect of nontreatment on both motor behaviour and PPE-A expression had been previously compared with that of the administration of saline in order to rule out any possible interference. Accordingly MPTP-treated animals were compared with “nontreated” controls in this study. This procedure has been chosen to minimise the number of animals used. In addition, brain tissues acquired for the present experiments are being used for further experiments.
(§4) Five monkeys were killed at the beginning of the study and were considered as day 0 (D0) controls. The remaining 20 were treated with daily (9:00 am) injections of MPTP hydrochloride (0.2 mg/kg, i.v.; Sigma, St Louis, Mo.) in saline according to a previously described protocol (Bezard et al., 1997 Neuroscience 81 p 399-404; Bezard et al., 1997 Brain Res. 766 p 107-112; and Bezard et al., 1999 Eur. J. Neurosci. 11 p 2167-2170). This protocol derives a reproducible MPTP cumulative dosing regime that leads to the first appearance of parkinsonian clinical signs after 15±1 injections (3.0±0.02 mg/kg). Five presymptomatic monkeys were killed on day 6 (i.e., after 6 injections; D6 Group), five presymptomatic monkeys at day 12 (i.e. after 12 injections; D12 group), five at day 15 after appearance of overt symptoms (i.e. after 15 injections; D15 group), and the remaining five fully parkinsonian monkeys at day 25 (i.e. after 15 injections; D25). All animals were killed by sodium pentobarbital overdose (150 mg/kg, i.v.) and the brains were removed quickly after death. Each brain was bisected along the midline and the two hemispheres were immediately frozen by immersion in isopentane (−45° C.) and then stored at −80° C. […]
(§5) Animal behavior was assessed daily (2 p.m) on a parkinsonian monkey rating scale (Bezard et al., 1997 Neuroscience 81 p399-404; and Bezard et al., 1997 Neuroreport 8 p435-438) using videotape recordings of monkeys in their cages in addition to clinical neurological evaluation. During each session two examiners evaluated the animals' levels of motor performance, coaxing them to perform various tasks by offering appetizing fruit. […]

cynomolgus monkeys [2] = assay: Bradykinesia test (time to pick up three pieces of fruit) after chronic MPTP; assay type: in vivo, Macaca fascicularis; conditions: maximum 60 s
Experimental: as §3, §4, §5

striatal DA content = assay: Neurochemical analysis of striatal DA by HPLC with electrochemical detection; assay type: in vivo, Macaca fascicularis
Experimental: (§6) Five monkeys were killed at the beginning of the study and were considered as day 0 (D0) controls. The remaining 20 were treated with daily (9:00 am) injections of MPTP hydrochloride (0.2 mg/kg, i.v.; Sigma, St Louis, Mo.) in saline according to a previously described protocol (Bezard et al., 1997 Neuroscience 81 p 399-404; Bezard et al., 1997 Brain Res. 766 p 107-112; and Bezard et al., 1999 Eur. J. Neurosci. 11 p 2167-2170). This protocol derives a reproducible MPTP cumulative dosing regime that leads to the first appearance of parkinsonian clinical signs after 15±1 injections (3.0±0.02 mg/kg). Five presymptomatic monkeys were killed on day 6 (i.e., after 6 injections; D6 Group), five presymptomatic monkeys at day 12 (i.e. after 12 injections; D12 group), five at day 15 after appearance of overt symptoms (i.e. after 15 injections; D15 group), and the remaining five fully parkinsonian monkeys at day 25 (i.e. after 15 injections; D25). All animals were killed by sodium pentobarbital overdose (150 mg/kg, i.v.) and the brains were removed quickly after death. Each brain was bisected along the midline and the two hemispheres were immediately frozen by immersion in isopentane (−45° C.) and then stored at −80° C. Tissue was sectioned at 20 μm in a cryostat at −17° C., thaw-mounted onto gelatin-subbed slides, dried on a slide warmer and stored at −80° C.
The extent of striatal DA denervation was assessed by measuring levels of DA, 3,4-dihydroxyphenylacetic acid (DOPAC) and homovanillic acid (HVA) in both the caudate nucleus and the putamen using high-pressure liquid chromatography with electrochemical detection as previously described (Bezard et al., 1997 Neuroscience 81 p399-404) with minor modifications. […] Pellets were retained for quantification of protein content by the Bradford assay (Bezard et al., 1997 Neuroscience 81 p 399-404). […] Concentrations of DA and metabolites were calculated using a computing integrator (Gold Nouveau V 1.6, Beckman). Mean and SEM values were calculated for both putamen and caudate nucleus for each group.

PPE-A mRNA = assay: Preproenkephalin-A in situ hybridization in striatum; assay type: in vivo, Macaca fascicularis
Experimental: as §6
In situ hybridization histochemistry was performed as previously described by Henry et al. (1999 Exp. Neurol. 155 p204-220) using a ^35S-radiolabeled oligonucleotide probe (Gibco BRL) corresponding to amino acids 130-145 of the human sequence of PPE-A. One microliter of the oligonucleotide was tailed by the isotope of 37° C. in a mixture containing 10 μl sterile water, 12.5 μl reaction buffer (sodium cocodylate 120 mM and dithiothreitol 100 mM), and 2 μl terminal deoxynucleotide transferase (all reagents DuPont/NEN) with 7 μl of [^35S] ATP (82.5 μCi, NEN). […] One microliter of this solution was counted by a liquid scintillation counter (Tricarb, 1500 Packard) to asses the efficiency of labeling. […]
Densitomeric analysis of autoradiographs was performed using an image analysis system (Image Pro Plus, v3.0.01, Media Cybernetics L.P., Atlanta, Ga.) as previously described (Henry et al., supra). The optical density of the autoradiogram was assessed for the striatum at three rostrocaudal levels in accordance with the functional organisation of the striatum: a rostral level, including the caudate, putamen, and nucleus accumbens; a midlevel, including the caudate, putamen, and GPe; and a caudal level including the body of the caudate, the putamen, and both the GPe and GPi. […] Four sections per animal, per striatal level were analyzed by an examiner blind with regard to experimental condition. […]

dopamine levels = assay: Reserpine-induced dopamine depletion in rats; assay type: in vivo; conditions: 3 mg/kg s.c., after 48 hours
Experimental: as §1, §2

Compound: C=CCN1CC[C@]23c4c5ccc(O)c4O[C@H]2C(=O)CC[C@@]3(O)[C@H]1C5 [naloxone]
- parkinsonian symptoms (actions of metenkephalin; 10 mg/kg i.p., rats 48 hours after reserpine 3 mg/kg s.c.): parkinsonian symptoms became manifest
- parkinsonian symptoms one hour after the injection (actions of metenkephalin; 10 mg/kg i.p., reserpine-treated rats): not observed
- parkinsonian symptoms in control animals not treated with reserpine (actions of metenkephalin; naloxone without reserpine): No parkinsonian symtoms were seen

Compound: O=C1CC[C@@]2(O)[C@H]3Cc4ccc(O)c5c4[C@@]2(CCN3CC2CC2)[C@H]1O5 [naltrexone]
- parkinsonian symptoms (opioid receptor; 10 mg/kg i.p., rats 48 hours after reserpine): parkinsonian symptoms appeared
- activity counts versus vehicle treated group (opioid receptor; 10 mg/kg, 5 minute period after administration, rats 48 hours after reserpine 3 mg/kg s.c., P<0.01): significantly less

Compound: CN1CC=C(c2ccccc2)CC1 [MPTP, 1-methyl-4-phenyl-1,2,3,6-tetrahydropyridine]
- parkinsonian score (cynomolgus monkeys [1]; D6 group, 6 daily injections 0.2 mg/kg i.v.): 0
- parkinsonian score (cynomolgus monkeys [1]; D12 group, 12 daily injections 0.2 mg/kg i.v.): 0
- parkinsonian score, median (range) (cynomolgus monkeys [1]; D15 group, 15 injections 0.2 mg/kg i.v.): 11 (range 10-14)
- parkinsonian score, median (range) (cynomolgus monkeys [1]; D25 group, killed at day 25 after 15 injections): 17 (range 15-19)
- mean duration of the bradykinesia test (cynomolgus monkeys [2]; D6 group, D0 controls 3.0±0.4 s): 2.4 ± 0.3 s
- mean duration of the bradykinesia test (cynomolgus monkeys [2]; D12 group, D0 controls 3.0±0.4 s): 2.6 ± 0.5 s
- mean duration of the bradykinesia test (cynomolgus monkeys [2]; D15 group): 19.9 ± 9.1 s
- mean duration of the bradykinesia test (cynomolgus monkeys [2]; D25 group, could not perform the test): 60 s
- reduction of DA level in the putamen compared to D0 (striatal DA content; D6 group): 42.7%
- depletion of DA in the putamen compared to D0 (striatal DA content; D12 group, asymptomatic): 56.3%
- decrease of DA level in the putamen compared to D0 (striatal DA content; D25 group): 97.9%
- PPE-A mRNA levels in striatum compared to D0 (PPE-A mRNA; D6 group): no significant difference
- PPE-A mRNA levels in striatum compared to D0 (PPE-A mRNA; D12 group, asymptomatic): sharp increase
- PPE-A mRNA levels in striatum compared to D0 (PPE-A mRNA; D15 group, mild parkinsonian symptoms): same distribution of increased levels
- PPE-A mRNA levels in striatum compared to D0 (PPE-A mRNA; D25 group, fully parkinsonian): pronounced increases

Compound: COC(=O)[C@H]1[C@H]2C[C@@H]3c4[nH]c5cc(OC)ccc5c4CCN3C[C@H]2C[C@@H](OC(=O)c2cc(OC)c(OC)c(OC)c2)[C@@H]1OC [Reserpine]
- dopamine level (dopamine levels): not less than 20 % of normal levels
